Source: patent publication US10980805B2, “Aza-pyridone compounds and uses thereof” (Janssen BioPharma, Inc., priority 2013, dated 2021)

What was measured:
[1] = system: Influenza strain A549_A/WSN/33 (H1N1); assay: Influenza antiviral assay (neuraminidase fluorescence readout); format: cell-based, Influenza virus; details: Influenza A virus, read-out: % Inhibition (EC50 class, Table 2)
[2] = target: Full length EN PA (influenza PA endonuclease) (Influenza A virus, UniProt P15659); assay: EN PA FRET inhibition assay; format: biochemical; details: FRET probe, mean of a minimum of two independent experiments, read-out: Potency (IC50 class, Table 3)

Row | Compound | EC50 [1] | IC50 [2]
1 | CCN1C[C@@H](C(c2cccc(C)c2)c2cccc(C)c2)n2ncc(=O)c(O)c2C1=O [Compound 36-B] | < 20 µM | ≥ 1 µM
2 | CCN1CC(C(c2cccc(C)c2)c2cccc(C)c2)n2ncc(=O)c(O)c2C1=O (stereo not shown) [Compound 36] | < 20 µM | < 0.25 µM
3 | CCCN1C[C@H](C(c2ccccc2)c2ccccc2)n2ncc(=O)c(O)c2C1=O [Compound 37-A] | < 20 µM | < 0.25 µM
4 | CN1CC(C(c2ccc(F)cc2)c2ccc(F)cc2)n2ncc(=O)c(O)c2C1=O (stereo not shown) [Compound 38] | < 20 µM | < 0.25 µM
5 | CCN1C[C@@H](C(c2cccc(Cl)c2)c2cccc(Cl)c2)n2ncc(=O)c(O)c2C1=O [Compound 39-B] | < 20 µM | 0.25 to 1 µM
6 | CCN1CC(C(c2cccc(Cl)c2)c2cccc(Cl)c2)n2ncc(=O)c(O)c2C1=O (stereo not shown) [Compound 39] | < 20 µM | < 0.25 µM
7 | CN1CC(C(c2ccccc2)c2ccc(F)cc2)n2ncc(=O)c(O)c2C1=O (stereo not shown) [Compound 40] | < 20 µM | < 0.25 µM
8 | CC(C)N1CC(C(c2cccc(F)c2)c2cccc(F)c2)n2ncc(=O)c(O)c2C1=O (stereo not shown) [Compound 41] | < 20 µM | < 0.25 µM
9 | CN1C[C@H](C2c3ccccc3CCc3cccnc32)n2ncc(=O)c(O)c2C1=O (stereo partly shown) [Compound 42-A] | < 20 µM | < 0.25 µM
10 | CN1C[C@@H](C2c3ccccc3CCc3cccnc32)n2ncc(=O)c(O)c2C1=O (stereo partly shown) [Compound 42-B] | 20 to 100 µM | 0.25 to 1 µM
11 | CN1CC(C2c3ccccc3CCc3cccnc32)n2ncc(=O)c(O)c2C1=O (stereo not shown) [Compound 42] | < 20 µM | < 0.25 µM
12 | CN1C[C@H](C2c3cc(F)ccc3CCc3ccc(F)cc32)n2ncc(=O)c(O)c2C1=O [Compound 45-A] | < 20 µM | < 0.25 µM
13 | CN1C[C@@H](C2c3cc(F)ccc3CCc3ccc(F)cc32)n2ncc(=O)c(O)c2C1=O [Compound 45-B] | 20 to 100 µM | < 0.25 µM
14 | CN1CC(C2c3cc(F)ccc3CCc3ccc(F)cc32)n2ncc(=O)c(O)c2C1=O (stereo not shown) [Compound 45] | < 20 µM | < 0.25 µM
15 | CN1C[C@@H](C2c3ccc(Cl)cc3CCc3cc(Cl)ccc32)n2ncc(=O)c(O)c2C1=O [Compound 46-B] | 20 to 100 µM | < 0.25 µM
16 | CC(C)N1CC(C(c2ccccc2)c2cccc(F)c2)n2ncc(=O)c(O)c2C1=O (stereo not shown) [Compound 47] | < 20 µM | < 0.25 µM
17 | Cc1cccc(C(c2cccc(C)c2)C2CN(C(C)C)C(=O)c3c(O)c(=O)cnn32)c1 (stereo not shown) [Compound 48] | < 20 µM | < 0.25 µM
18 | CCN1CC(C(c2ccccc2)c2cccc(C)c2)n2ncc(=O)c(O)c2C1=O (stereo not shown) [Compound 49] | < 20 µM | < 0.25 µM
19 | Cc1cccc(C(c2ccccc2)C2CN(C(C)C)C(=O)c3c(O)c(=O)cnn32)c1 (stereo not shown) [Compound 50] | < 20 µM | < 0.25 µM
20 | CC(C)N1C[C@H](C2c3cccc(F)c3CCc3c(F)cccc32)n2ncc(=O)c(O)c2C1=O [Compound 51-A] | < 20 µM | < 0.25 µM
21 | CC(C)N1CC(C2c3cccc(F)c3CCc3c(F)cccc32)n2ncc(=O)c(O)c2C1=O (stereo not shown) [Compound 51] | < 20 µM | < 0.25 µM
22 | CN1C[C@@H](C2c3cc(Cl)ccc3CCc3ccc(Cl)cc32)n2ncc(=O)c(O)c2C1=O [Compound 52-A] | < 20 µM | < 0.25 µM
23 | CN1C[C@H](C2c3cc(Cl)ccc3CCc3ccc(Cl)cc32)n2ncc(=O)c(O)c2C1=O [Compound 52-B] | < 20 µM | < 0.25 µM
24 | CN1CC(C2c3cc(Cl)ccc3CCc3ccc(Cl)cc32)n2ncc(=O)c(O)c2C1=O (stereo not shown) [Compound 52] | < 20 µM | < 0.25 µM

Row | Compound | EC50 [1] | IC50 [2]
25 | COCCN1C[C@H](C(c2ccccc2)c2ccccc2)n2ncc(=O)c(O)c2C1=O [Compound 53-A] | < 20 µM | < 0.25 µM
26 | CC(C)Oc1cccc(C(c2ccccc2)[C@H]2CN(C)C(=O)c3c(O)c(=O)cnn32)c1 (stereo partly shown) [Compound 54] | 20 to 100 µM | < 0.25 µM
27 | CN1CC(C(c2ccccc2)c2cccc(OCC3CC3)c2)n2ncc(=O)c(O)c2C1=O (stereo not shown) [Compound 55] | 20 to 100 µM | < 0.25 µM
28 | CN1CC(C2c3cc(F)ccc3CCc3c(F)cccc32)n2ncc(=O)c(O)c2C1=O (stereo not shown) [Compound 56] | < 20 µM | < 0.25 µM
29 | CN1CC(C2c3ccccc3COc3ccccc32)n2ncc(=O)c(O)c2C1=O (stereo not shown) [Compound 57] | < 20 µM | < 0.25 µM
30 | CN1CC(C2c3ccc(F)cc3CCc3c(F)cccc32)n2ncc(=O)c(O)c2C1=O (stereo not shown) [Compound 59-A] | < 20 µM | < 0.25 µM
31 | CN1CC(C(c2ccc(Cl)cc2)c2cccc(Cl)c2)n2ncc(=O)c(O)c2C1=O (stereo not shown) [Compound 60] | < 20 µM | < 0.25 µM
32 | CN1CC(C(c2ccc(F)cc2)c2cccc(Cl)c2)n2ncc(=O)c(O)c2C1=O (stereo not shown) [Compound 61] | < 20 µM | < 0.25 µM
33 | CN1CC(C(c2cccc(Cl)c2)c2ccccc2F)n2ncc(=O)c(O)c2C1=O (stereo not shown) [Compound 62] | < 20 µM | < 0.25 µM
34 | O=C1c2c(O)c(=O)cnn2[C@@H](C(c2ccccc2)c2ccccc2)CN1C1CCOCC1 [Compound 63-A] | < 20 µM | < 0.25 µM
35 | O=C1c2c(O)c(=O)cnn2[C@H](C(c2ccccc2)c2ccccc2)CN1C1CCOCC1 [Compound 63-B] | < 20 µM | 0.25 to 1 µM
36 | O=C1c2c(O)c(=O)cnn2C(C(c2ccccc2)c2ccccc2)CN1C1CCOCC1 (stereo not shown) [Compound 63] | < 20 µM | < 0.25 µM
37 | CN1CC(C(c2ccccc2)c2cccc(O)c2)n2ncc(=O)c(O)c2C1=O (stereo not shown) [Compound 64] | < 20 µM | < 0.25 µM
38 | CC(C)C(=O)Oc1c2n(ncc1=O)[C@@H](C1c3ccccc3CCc3ccccc31)CN(C)C2=O [Compound 65-A] | < 20 µM | < 0.25 µM
39 | CCN1C[C@H]([C@@H](c2ccccc2)c2cccc(Cl)c2)n2ncc(=O)c(OC(=O)C(C)C)c2C1=O [Compound 67-A] | < 20 µM | < 0.25 µM
40 | CC(C)N1C[C@@H](C(c2cccc(Cl)c2)c2cccc(Cl)c2)n2ncc(=O)c(O)c2C1=O [Compound 68-B] | < 20 µM | 0.25 to 1 µM
41 | CC(C)C(=O)Oc1c2n(ncc1=O)[C@@H](C(c1ccccc1)c1ccccc1)CN(C(C)C)C2=O [Compound 69-A] | < 20 µM | < 0.25 µM
42 | CC(C)C(=O)Oc1c2n(ncc1=O)[C@@H](C(c1cccc(F)c1)c1cccc(F)c1)CN(C(C)C)C2=O [Compound 70-A] | < 20 µM | < 0.25 µM
43 | CN1C[C@H]([C@@H]2c3cc(F)ccc3CCc3c(F)cccc32)n2ncc(=O)c(O)c2C1=O [Compound 71-A] | < 20 µM | < 0.25 µM
44 | CN1C[C@H]([C@H]2c3cc(F)ccc3CCc3c(F)cccc32)n2ncc(=O)c(O)c2C1=O [Compound 71-B] | < 20 µM | < 0.25 µM
45 | CN1C[C@@H](C2c3cc(F)ccc3CCc3c(F)cccc32)n2ncc(=O)c(O)c2C1=O (stereo partly shown) [Compound 71] | 20 to 100 µM | 0.25 to 1 µM
46 | CCN1C[C@H](C(c2cccc(F)c2)c2cccc(F)c2)n2ncc(=O)c(OC(=O)C(C)C)c2C1=O [Compound 72-A] | < 20 µM | < 0.25 µM
47 | CCCN1C[C@H](C(c2cccc(F)c2)c2cccc(F)c2)n2ncc(=O)c(O)c2C1=O [Compound 74-A] | < 20 µM | < 0.25 µM
